In brackets after ≈: the same amount, converted by molar mass. Like-named read-outs stand apart in the source and are kept apart here.

Data set [1] deals with L1210 leukemia cells. As to the kind of experiment: Growth inhibition of L1210 leukemia cells in vitro by nucleoside analogues (Table 7). It counts as cell-based, murine. Particulars: Mus musculus, growth inhibition by 50%, exposure 96 h, then 72 h drug-free culture. How it is done: The effectiveness against growth of L1210 cells of 1 these nucleoside analogs was tested and the growth inhibition shown in Table 7.
^a Exponentially growing cells were exposed to varying drug
concentrations for 96 h at 37° C. The cells were then centrifuged,
resuspended, and cultured in drugfree medium for 72 h.
^b The drug concentration that inhibited cell growth by 50% compared
to untreated control cultures.

For data set [2], the system named is KBM-3/DOX. As to the kind of experiment: cells. It is filed as cell-based, human. Particulars: human, kbm-3/dox cells.
Data set [3] relates to cyclophosphamide-resistant L1210 and P-388 cell-lines. The note with it: cited from earlier work.
The subject of data set [4] is L1210 leukemia cells. The data set can be described thus: cells. It is filed as cell-based, murine. Particulars: Mus musculus.
The subject of data set [5] is L1210 lymphatic leukemia cells. The data set can be described thus: cells. It counts as cell-based, murine.
Data set [6] concerns GM-CFC from normal human bone marrow.
For data set [7], the system named is KBM-3/AMSA. As to the kind of experiment: cells. Particulars: human, kbm-3/amsa cells. It is filed as cell-based, human.

For the compound `CC(=O)OC(CCOP(N)(=O)OC[C@@H]1CC[C@H](n2cc(C)c(=O)[nH]c2=O)O1)OC(C)=O` (stereo partly drawn) [Compound D-3], the IC50 in data set [1] was determined as 1300 nM.
For the compound `COc1cccc2c1C(=O)c1c(O)c3c(c(O)c1C2=O)C[C@@](O)(C(=O)CO)C[C@@H]3O[C@H]1C[C@H](N)[C@H](O)[C@H](C)O1` [doxorubicin, reference compound], the “resistance of subline to doxorubicin” value in data set [2] came out at 100 fold.
As for `CCOP(=O)(CCC=O)c1ccccc1` (stereo not drawn) [ethylphenyl(2-formylethyl) phosphinate], the “effect on cytotoxicity of 4-hydroperoxycyclophosphamide and ASTA Z 7557” value (shortened to “effect on cytotoxicity”) in data set [3] is on record as “potentiate the cytotoxicity”.
Consider `CCN(CC)C(=S)S` [diethyl dithiocarbamate], for which the “effect on cytotoxicity” value in data set [3] (cyclophosphamide-resistant L1210 and P-388) is on record as “potentiate the cytotoxicity”.
As for `CCN(CC)C(=S)SSC(=S)N(CC)CC` [disulfiram], in data set [3], the “effect on cytotoxicity” value is listed as “potentiate the cytotoxicity”; the “sensitization of resistant L1210 cell-line” value is listed as “rendered drug-sensitive”.
The compound `CC(C)(C)C(=O)OC(CCOP(N)(=O)OC[C@@H]1CC[C@H](n2ccc(=O)[nH]c2=O)O1)OC(=O)C(C)(C)C` (stereo partly drawn) [Compound D-2] displayed an IC50 in data set [1] of 700 nM.
`COc1cccc2c1C(=O)c1c(O)c3c(c(O)c1C2=O)C[C@@](O)(C(=O)CO)C[C@@H]3O[C@H]1C[C@H](NP(=O)(NCCCl)OCCC(OC(C)=O)OC(C)=O)[C@H](O)[C@H](C)O1` (stereo partly drawn) [Compound C-3] showed an IC50 in data set [4] of 21 nM.
Same read-out and setting: the same measure for `COc1cccc2c1C(=O)c1c(O)c3c(c(O)c1C2=O)C[C@@](O)(C(C)=O)C[C@@H]3O[C@H]1C[C@H](NP(=O)(NCCCl)OCCC(OC(C)=O)OC(C)=O)[C@H](O)[C@H](C)O1` (stereo partly drawn) [Compound C-4]: 25 nM.
Regarding `N#CN` [cyanamide], the “effect on cytotoxicity” value in data set [3] is “potentiate the cytotoxicity”.
In turn, `COc1cccc2c1C(=O)c1c(O)c3c(c(O)c1C2=O)C[C@@](O)(C(=O)CO)C[C@@H]3O[C@H]1C[C@H](NP(=O)(NCCCl)OCCC(OC(=O)C(C)(C)C)OC(=O)C(C)(C)C)[C@H](O)[C@H](C)O1` (stereo partly drawn) [Compound C-7] had an IC50 in data set [4] of 35 nM.
Take `CC(=O)OC(CCOP(=O)(NCCCl)NCCCl)OC(C)=O` [Compound 22-F, 0-(3,3-Diacetatopropyl)-N-(2-chloroethyl)-N-(2chloroethyl)phosphorodiamide]: the “toxicity to L1210 cells, comparison in words” value in data set [5] is given as “much more potent than ASTA Z 7557”. For the same compound, the IC50 in data set [5] (Mus musculus, L1210, 72 h, read-out: ED50) was 1.7 µg/mL (≈ 4.48 µM).
As for `CC(=O)OC(CCOP(N)(=O)OC[C@@H]1CC[C@H](n2ccc(=O)[nH]c2=O)O1)OC(C)=O` (stereo partly drawn) [Compound D-1], the IC50 in data set [1] was 1400 nM.
On to `COc1cc(NS(C)(=O)=O)ccc1Nc1c2ccccc2nc2ccccc12` [m-AMSA, 4'-(9-acridinylamino)-3-methanesulfon-m-amisidide, reference compound], for which the “GM-CFC recovery kinetics / progenitor sparing, in words” value in data set [6] is “nonselective killing of mature (GM-CFC) and primitive (pluripotent) myeloid progenitor cells”. The “resistance of subline to m-AMSA” value in data set [7] is given as 130 fold.
Regarding `COc1cccc2c1C(=O)c1c(O)c3c(c(O)c1C2=O)C[C@@](O)(C(C)=O)C[C@@H]3O[C@H]1C[C@H](NP(=O)(NCCCl)OCCC(OC(=O)C(C)(C)C)OC(=O)C(C)(C)C)[C@H](O)[C@H](C)O1` (stereo partly drawn) [Compound C-8], in data set [4], the IC50 stood at 30 nM.
In data set [1], `Cc1cn([C@H]2CC[C@@H](COP(N)(=O)OCCC(OC(=O)C(C)(C)C)OC(=O)C(C)(C)C)O2)c(=O)[nH]c1=O` (stereo partly drawn) [Compound D-4] had an IC50 of 1600 nM.

Values taken from patent publication US5055459A, “Selective elimination of malignant cells from bone marrow by bis (acyloxy) propylphosphoramidates” (Board of Regents, The University of Texas, priority 1989, dated 1991).
